According to patent EP1081232A1, “Novel target for antifungals” (K.U. LEUVEN RESEARCH & DEVELOPMENT, priority 1999, dated 2001):

Tested on: tps2Δ strains
Assay: Sensitivity towards antifungals, growth curves in liquid medium in microtiter wells (bioscreen C)
Type: cell-based, Saccharomyces cerevisiae
Settings: 10^-6 M ketoconazole, 33°C, cells pre-grown to stationary phase, OD 600 nm, after 24 hours
Experimental: Sensitivity towards the antifungals itraconazole and ketoconazole was tested in microtiter wells using a bioscreen C apparatus (Life sciences, Labsystems) and on solid culture media.
Yeast cells were pre-grown in YPglucose medium till stationary phase. The cells were diluted to a initial optical density of 0.05 OD and 300 µl of cell suspension was added to each well of a microtiter plate. Three µl of the correct stock solution of the compound, dissolved in DMSO, were added to each well. For the control reactions, only DMSO was added. The microtiter plate was placed in the bioscreen C apparatus and were incubated at 33°C or 37°C, with medium intensity shaking (30 seconds shaking per minute). The optical density at 600 nm was measured every 30 min.
The effect of the addition of 10^-7 M Itraconazole and 10^-6 Ketoconazole on the growth curve of prototrophic tps2Δ strain PVD32 and wild type strain PVD23 at 33°C is shown in Figures 3 and 4 respectively.
The effect of different concentrations of itraconazole on the growth at 33°C of the diploid wild type strain (PVD190) and the diploid heterozygous tps2Δ strain PVD191 was tested and the results are presented in Figure 5.

Q: `CC(=O)N1CCN(c2ccc(OCC3COC(Cn4ccnc4)(c4ccc(Cl)cc4Cl)O3)cc2)CC1` (stereo not shown) [ketoconazole] was tested. Which effect on growth did it give?
A: no detectable growth
